Read-outs that look alike come from different tables or passages of the source.
Key:
[1] = system: human epithelial cells and rat arterial smooth muscle cells; assay: Mortality of human epithelial cells and of rat arterial smooth muscle cells (antioxidant effect, model of oxygen toxicity); format: cell-based; conditions: for protective effect on cell mortality: result in words; for Reduction in percentages: cell mortality: in culture medium: (-)hydroxycitrate 0.1 mM, silicon 0.036 mM, magnesium 0.1 mM
Protocol: (§1) 1) Study of the Mortality of Human Epithelial Cells and of Rat Arterial Smooth Muscle Cells.
The antioxidant effects of (-)hydroxycitrate and of different minerals were tested according to the protocol described by Michiels et al: "A new experimental model to study oxygen toxicity", Arch. int. Physiol. Biochem. 94 (5), S13-S18, 1986, using rat hepatocytes, as well as human epithelial cells and rat arterial smooth muscle cells.
(§2) The various products were respectively tested at the following concentrations: […]

[2] = system: rat arterial smooth muscle cells; assay: Proliferation of arterial smooth muscle cells; format: cell-based; conditions: for Reduction in percentages: proliferation of cells: in culture medium: (-)hydroxycitrate 0.1 mM, silicon 0.036 mM, magnesium 0.1 mM
Protocol: as §1
(§3) The inhibitory effects of these compounds on the proliferation of arterial smooth muscle and on the accumulation of intracellular lipids was also tested using the method described by Shrivastava et al. in Meth. Find. Exp. Clin. Pharmacol. 15 (6), pages 345-350, 1993.
as §2

[3] = system: rat arterial smooth muscle cells; assay: Accumulation of intracellular lipids in arterial smooth muscle cells; format: cell-based; conditions: for Reduction in percentages: accumulation of lipids: in culture medium: (-)hydroxycitrate 0.1 mM, silicon 0.036 mM, magnesium 0.1 mM
Protocol: as §1, §3, §2

[4] = literature, Majeed et al. 1994; in words; cited from earlier work
[5] = system: hypercholesterolemic rabbits; assay: Effect in vivo on the cholesterol level in hypercholesterolemic rabbits; design: species or system rabbit; conditions: 750 mg/kg oral
Protocol: (§4) 2) Study of the Effect in vivo on the Cholesterol Level and on Lipidic Deposits in Hypercholesterolemic Rabbits.
(§5) Two batches of 20 male rabbits (Elevage scientifique des Dombes: 2.5-3 kg) received a cholesterol-rich food (1%) for a period of 8 weeks. The first batch were not treated and therefore served as a control while the second batch received 750 mg/kg of magnesium (-)hydroxycitrate by oral route.

in vivo = conditions: rat
Text: The toxicity of magnesium (-)hydroxycitrate is greater than 2 g/kg by intraperitoneal route or than 7 g/kg per os in the rat. That of metals, in particular in the form of salts or mineral oxides (frequently administered as trace elements) is well known.

[6] = system: hypercholesterolemic rabbit; format: in vivo
Protocol: 3) Study of Antiatherosclerotic Effects in the Hypercholesterolemic Rabbit.
Two batches of 15 male rabbits (Elevage scientifique des Dombes: 2.5-3 kg) received a cholesterol-rich food: 0.2% for the period D+8 to D+37, then 1% until D+69, when the animals are sacrificed.
The first batch was not treated and therefore served as a control while the second batch received 500 mg/kg of magnesium (-)hydroxycitrate by oral route.

[7] = system: wall of the aorta, hypercholesterolemic rabbits; assay: Lipidic deposits on the wall of the aorta in hypercholesterolemic rabbits; format: in vivo, rabbit; conditions: 750 mg/kg oral
Protocol: as §4, §5

hypertensive rat = assay: Anti-hypertensive activity in the hypertensive rat; format: in vivo; conditions: 500 mg/kg/day oral, one week, vs untreated controls
Protocol: 4) Study of Anti-hypertensive Activity in the Hypertensive Rat
Magnesium (-)hydroxycitrate was tested on 12 hypertensive rats. A batch of 12 other hypertensive rats was used as a control batch. An average reduction in arterial pressure of 17%±3% with respect to the controls (untreated) was noted after one week of treatment at a rate of 500 mg per kilogram per day by oral route.

[8] = result in words, with respect to (-)hydroxycitrate or magnesium
[9] = 500 mg/kg/day oral, 62 days, vs controls

O=C(O)CC(O)(C(=O)O)C(O)C(=O)O (single isomer, unassigned; (-)) [(-)hydroxycitrate, (-)hydroxycitric acid]
protective effect on cell mortality [1]: no protective effect on cell mortality | Reduction in percentages: proliferation of cells [2]: 6 (±4) % | Reduction in percentages: accumulation of lipids [3]: 16 (±3) % | body weight [4]: reduces body weight

Silicon
Reduction in percentages: cell mortality [1]: 28 (±7) % | Reduction in percentages: proliferation of cells [2]: 28 (±6) % | Reduction in percentages: accumulation of lipids [3]: 32 (±5) %

Magnesium
Reduction in percentages: cell mortality [1]: 6 (±3) % | protective effect on cell mortality [1]: reduces this mortality very slightly | Reduction in percentages: proliferation of cells [2]: 2 (±2) % | Reduction in percentages: accumulation of lipids [3]: 20 (±9) %

O=C(O)C[C@@](O)(C(=O)O)[C@H](O)C(=O)O [Magnesium (-)hydroxycitrate, magnesium (-)hydroxycitrate]
protective effect on cell mortality [1]: more protective effect | Reduction in percentages: proliferation of cells [2]: 48 (±8) % | effect on cell proliferation [2, 8]: very significant increase in the effects | HDL's, variation ([5]; 4 weeks, vs controls): +8.5% | LDL's, variation ([5]; 4 weeks, vs controls): -22.4% | Total cholesterol, variation ([5]; 4 weeks, vs controls): -19.5% | Total cholesterol/HDL ratio, variation ([5]; 4 weeks, vs controls): -28.2% | HDL's, in words ([5]; after 4 weeks): increase in HDL's | LDL's, in words ([5]; after 4 weeks): reduction in LDL's | HDL's ([5]; after 4 weeks of treatment): 0.246 g/L | LDL's ([5]; after 4 weeks of treatment): 4.00 g/L | Total cholesterol ([5]; after 4 weeks of treatment): 4.47 g/L | Total cholesterol/HDL ratio ([5]; after 4 weeks of treatment): 19.22 | Reduction in percentages: accumulation of lipids [3]: 81 (±13) % | effect on accumulation of lipids [3, 8]: very significant increase in the effects | LD50 (in vivo; ip, intraperitoneal, read-out: toxicity, intraperitoneal route): > 2000 mg/kg | LD50 (in vivo; po, per os, read-out: toxicity, per os): > 7000 mg/kg | Reduction in weight of spleen ([6]; 500 mg/kg/day oral, 62 days): -20.3% | Reduction in weight of surrenal glands ([6]; 500 mg/kg/day oral, 62 days): -21.6% | Reduction in lipidic deposits on the aortic vascular wall ([6]; 500 mg/kg/day oral, 62 days, vs control batch): 46.3% | Reduction in the total cholesterol level [6, 9]: -13.75% | Reduction in the total cholesterol/HDL ratio [6, 9]: -25.72% | increase in HDL levels [6, 9]: +12.5% | Reduction in LDL's ([6]; 500 mg/kg/day oral, 62 days, vs controls, given without sign): 16.36% | weight of heart, liver ([6]; 500 mg/kg/day oral, 62 days, in words): Reduction in weight of heart, liver | overall effect on the hypercholesterolemic rabbit ([6]; non-cytotoxic doses, in words): hypocholesterolemia and anti-atherosclerotic effect | number of lipidic deposits, aortic arch, week 4 ([7]; 4 weeks): 3.5 | number of lipidic deposits, thoracic arch, week 4 ([7]; 4 weeks): 0.0 | number of lipidic deposits, aortic arch, week 8 ([7]; 8 weeks): 1.5 | number of lipidic deposits, thoracic arch, week 8 ([7]; 8 weeks): 0.0 | number of lipidic deposits, in words ([7]; after 4 weeks and after 8 weeks): reduction in the number of lipidic deposits | number of lipidic deposits, total ([7]; sum of aortic and thoracic arch, weeks 4 and 8): 5.0 | lipidic deposits, total, Variation % ([7]; vs controls): -80.4% | average reduction in arterial pressure (hypertensive rat): 17%±3%

Source: patent publication US6221901A, “Magnesium (-)hydroxycitrate, method of preparation, applications, and compositions in particular pharmaceutical containing same” (priority 1996, dated 2001)
